Molecules are shown by their SMILES. pEC50: −log10 of the molar value.

The assay addresses T1, KCNQ2/3 heteromultimers (Rattus norvegicus, UniProt O88943+O88944).
T1 construct: endogenous in cells; host or cells: PC-12 cells differentiated with NGF-7s; no transfection is described
Briefly: Rubidium (Rb+) efflux test in PC-12 cells. It counts as cell-based. To be noted: NGF-differentiated PC-12 cells, depolarization buffer 15 mM KCl, 10 min. The method, then: Compounds of this invention formula were evaluated for activity toward potassium channels in a cell-based Rb^+ efflux assay. This cellular bioassay is believed to faithfully represent the M current channel activities identified with KCNQ2/3 heteromultimers. […] Additionally, antiseizure activity in vivo was evaluated in a mouse maximal electroshock seizure (MES) model, and neurotoxicities were determined from a rotorod neurocognitive motor impairment model.
PC-12 cells were grown at 37° C. and 5% CO2 in DMEM/F12 Medium (Dulbecco's Modified Eagle Medium with Nutrient Mix F-12, available from Invitrogen of Carlsbad, Calif.), supplemented with 10% horse serum, 5% fetal bovine serum, 2 mM glutamine, 100 U/ml penicillin, and […] streptomycin. They were plated in poly-D-lysine-coated 96-well cell culture microplates at a density of 40,000 cells/well and differentiated with 100 ng/ml NGF-7s for 2-5 days. For the assay, the medium was aspirated, and the cells were washed once with 0.2 ml in wash buffer (25 mM HEPES, pH 7.4, 150 mM NaCl, 1 mM MgCl2; 0.8 mM NaH2PO4, 2 mM CaCl2). The cells were then loaded with 0.2 ml Rh^+ loading buffer (wash buffer plus 5.4 mM […], 5 mM glucose) and incubated at 37° C. for 2 h. Attached cells were quickly washed three times with buffer (same as Rb^+ loading buffer, but containing 5.4 mM KCl instead of RbCl) to remove extracellular Rb^+. Immediately following the wash, 0.2 ml of depolarization buffer (wash buffer plus 15 mM KCl) with or without compounds was added to the cells to activate efflux of potassium ion channels. After incubation for 10 min at room temperature, the supernatant was carefully removed and collected. Cells were lysed by the addition of 0.2 ml of lysis buffer (depolarization buffer plus 0.1% Triton X-100) and the cell lysates were also collected. If collected samples were not immediately analyzed for Rb^+ contents by atomic absorption spectroscopy (see below), they were stored at 4° C. without any negative effects on subsequent Rb^+ analysis.
The concentrations of Rb^+ in the supernatants (Rb^+Sup) and the cell lysates (Rb^+Lys) were quantified using an ICR8000 flame atomic absorption spectrometer (Aurora Biomed Inc., Vancouver, B.C.) under conditions defined by the manufacturer. Samples 0.05 ml in volume were processed automatically from microtiter plates by dilution with an equal volume of Rb^+ sample analysis buffer and injection into an air-acetylene flame. The amount of Rb^+ in the sample was measured by absorption at 780 nm using a hollow cathode lamp as light source and a PMT detector. A calibration curve covering the range 0-5 mg/L Rb^+ in sample analysis buffer was generated with each set of plates. The percent Rb^+ efflux (F) was defined by F=[Rb^+Sup/(Rb^+Sup+Rb^+Lys)]×100%. wherein the Fc is the efflux in the presence of compound in depolarization buffer, Fb is the efflux in basal buffer, and Fs is the efflux in depolarization buffer, […]. The efflux (F) and compound concentration relationship was plotted to calculate an EC50 value, a compound's concentration for 50% of maximal RV efflux. Maximal Electroshock Seizure (MES) and Acute Toxicity Tests MES Test
The term pEC50 denotes the EC50 on a negative log10 scale, so that one unit is a factor of ten. A higher pEC50 goes with a small EC50. Compound `CCOC(=O)Nc1ccc(OCc2ccc(F)cc2)cc1` gave a pEC50 of 6.30 to 7.30.

`CCOC(=O)Nc1ccc(OCc2ccc(F)cc2)cc1F` had a pEC50 of 6.30 to 7.30.

`CCOC(=O)Nc1ccc(OCc2ccc(F)cc2)cc1C` showed a pEC50 of 6.30 to 7.30.

`CCOC(=O)Nc1ccc(OCc2ccc(F)cc2)cc1C(F)(F)F` had a pEC50 of 6.30 to 7.30.

In the case of `Cc1cc(OCc2ccc(F)c(F)c2)cc(C)c1NC(=O)CCC1CCCC1`, the pEC50 was 8.00 to 9.00.

For the compound `Cc1cc(OCc2ccc(F)c(F)c2)cc(C)c1NC(=O)CC(C)(C)C`, the pEC50 is 7.30 to 8.00.

The compound `Cc1cc(OCc2ccc(F)cc2)cc(C)c1NC(=O)CCC1CCCC1` showed a pEC50 of 8.00 to 9.00.

For the compound `Cc1cc(OCc2ccc(F)cc2)cc(C)c1NC(=O)CC(C)(C)C`, the pEC50 is 7.30 to 8.00.

`Cc1ccc(COc2cc(C)c(NC(=O)CC(C)(C)C)c(C)c2)cc1` had a pEC50 of 7.30 to 8.00.

Compound `Cc1cc(OCc2cccc(C(F)(F)F)c2)cc(C)c1NC(=O)CC(C)(C)C` showed a pEC50 of 7.30 to 8.00.

On to `Cc1cc(OCc2ccccc2C(F)(F)F)cc(C)c1NC(=O)CC(C)(C)C`, for which the pEC50 is 6.30 to 7.30.

`Cc1cc(OCc2ccc(Cl)cc2)cc(C)c1NC(=O)CC(C)(C)C` showed a pEC50 of 7.30 to 8.00.

`Cc1cc(OCc2ccc(Br)cc2)cc(C)c1NC(=O)CC(C)(C)C` showed a pEC50 of 7.30 to 8.00.

For the compound `Cc1cc(OCc2ccc(C(F)(F)F)cc2)cc(C)c1NC(=O)CC(C)(C)C`, the pEC50 was 7.30 to 8.00.

Turning to `Cc1cc(OCc2ccc(F)cc2F)cc(C)c1NC(=O)CC(C)(C)C`, the pEC50 is 7.30 to 8.00.

For `Cc1cc(OCc2cccc(Cl)c2)cc(C)c1NC(=O)CC(C)(C)C`, the pEC50 is 7.30 to 8.00.

The compound `Cc1cc(OCc2cccc(F)c2)cc(C)c1NC(=O)CC(C)(C)C` showed a pEC50 of 7.30 to 8.00.

The record behind these values is patent US8492588B2, “Benzyloxy anilide derivatives useful as potassium channel modulators” (Valeant Pharmaceuticals International, priority 2008, dated 2013).
